Data as given in ChEMBL document CHEMBL4371048, “Ganocapenoids A-D: Four new aromatic meroterpenoids from Ganoderma capense” (Bioorg Med Chem Lett, 2019).
Activity calls are given as the source filed them. No cut-off for these calls is given here.

How the values were obtained:
Acetylcholinesterase = Acetylcholinesterase (Homo sapiens, UniProt P22303); experiment: Inhibition of AchE (unknown origin) using acetylthiocholine iodide as substrate preincubated for 20 mins followed by substrate addition and measured every 20 secs for 20 times by Ellman's assay
PC-12 = experiment: Neurite-outgrowth promoting activity in NGF-differentiated rat PC12 cells assessed as cell differentiation at 10 uM after 72 hrs by phase contrast microscopic method (reference value: 4.72 +/- 1.18%); assay type: functional, cell-based
HepG2 [1] = experiment: Reduction in lipid accumulation in human HepG2 cells after 24 hrs by Oil-red O staining based microscopic analysis; assay type: functional, cell-based
HepG2 [2] = experiment: Decrease in SREBP2 mRNA level in human HepG2 cells at 20 to 40 uM after 24 hrs by qPCR analysis; assay type: functional, cell-based
HepG2 [3] = experiment: Increase in ABCG1 mRNA level in human HepG2 cells at 20 to 40 uM after 24 hrs by qPCR analysis; assay type: functional, cell-based
HepG2 [4] = experiment: Increase in LDLR expression in human HepG2 cells at 20 to 40 uM after 24 hrs by Western blot analysis; assay type: functional, cell-based
HepG2 [5] = experiment: Decrease in HMGCR expression in human HepG2 cells at 20 to 40 uM after 24 hrs by Western blot analysis; assay type: functional, cell-based
HepG2 [6] = experiment: Increase in LXRalpha mRNA level in human HepG2 cells at 20 to 40 uM after 24 hrs by qPCR analysis; assay type: functional, cell-based
HepG2 [7] = experiment: Cytotoxicity against human HepG2 cells assessed as effect on cell viability at 10 to 160 uM after 48 hrs by MTT assay; assay type: cell-based; conditions: hepg2, 48 h
HepG2 [8] = experiment: Decrease in HMGCR mRNA level in human HepG2 cells at 20 to 40 uM after 24 hrs by qPCR analysis; assay type: functional, cell-based
HepG2 [9] = experiment: Increase in ABCG1 expression in human HepG2 cells at 20 to 40 uM after 24 hrs by Western blot analysis; assay type: functional, cell-based
HepG2 [10] = experiment: Increase in PPARgamma expression in human HepG2 cells at 20 to 40 uM after 24 hrs by Western blot analysis; assay type: functional, cell-based
HepG2 [11] = experiment: Increase in PPARgamma mRNA level in human HepG2 cells at 20 to 40 uM after 24 hrs by qPCR analysis; assay type: functional, cell-based

Chain of Acetylcholinesterase (P22303 whole entry): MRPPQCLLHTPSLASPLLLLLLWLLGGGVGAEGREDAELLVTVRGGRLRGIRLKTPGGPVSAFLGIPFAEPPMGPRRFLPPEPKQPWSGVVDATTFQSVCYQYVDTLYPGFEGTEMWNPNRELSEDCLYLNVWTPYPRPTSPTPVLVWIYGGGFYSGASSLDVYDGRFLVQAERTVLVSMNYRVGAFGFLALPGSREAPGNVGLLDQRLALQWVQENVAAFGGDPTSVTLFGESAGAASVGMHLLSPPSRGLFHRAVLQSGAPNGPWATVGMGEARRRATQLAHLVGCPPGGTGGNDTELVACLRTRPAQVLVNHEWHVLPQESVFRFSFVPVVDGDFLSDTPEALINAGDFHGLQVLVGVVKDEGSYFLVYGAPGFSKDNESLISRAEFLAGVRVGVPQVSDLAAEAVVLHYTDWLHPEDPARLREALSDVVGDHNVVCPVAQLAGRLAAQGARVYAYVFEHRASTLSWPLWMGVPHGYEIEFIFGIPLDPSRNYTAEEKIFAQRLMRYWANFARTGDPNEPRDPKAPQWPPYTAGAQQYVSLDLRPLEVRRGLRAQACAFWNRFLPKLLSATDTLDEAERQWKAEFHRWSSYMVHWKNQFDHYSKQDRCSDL

O=C(O)CC1(CC(=O)c2cc(O)ccc2O)C=C(CO)CCC1 (stereo not drawn)
IC50 (Acetylcholinesterase): 26 µM
Activity (PC-12): 5.97%

COC(=O)/C(=C\C(=O)c1cc(O)ccc1O)CC/C=C(\C)CCC=C(C)C
IC50 (Acetylcholinesterase): 8.2 µM
Activity (PC-12): 10.95%

C/C(=C/CCC1=C[C@@H](c2cc(O)ccc2O)OC1=O)CO
Activity (PC-12): 12.31%

CC1(C)Oc2ccc(O)cc2C2=C1CCC(C(=O)O)=C2
Activity (PC-12): 4.89%

C/C1=C\CCC2=CC(c3cc(O)ccc3O)(OC/C(CO)=C/CC1)OC2=O (stereo not drawn)
Activity (HepG2 [1]): Dose-dependent effect
Activity (HepG2 [2]): Active
Activity (HepG2 [3]): Active
Activity (HepG2 [4]): Active
Activity (HepG2 [5]): Active
Activity (HepG2 [6]): Active
Activity (HepG2 [7]): Non-Toxic
Activity (HepG2 [8]): Active
Activity (HepG2 [9]): Active
Activity (HepG2 [10]): Active
Activity (HepG2 [11]): Active

C/C(=C\CCC1=C[C@@H](c2cc(O)ccc2O)OC1=O)CCC=C(CO)CO
Activity (PC-12): 6.19%

C/C(=C/CC[C@H](CO)c1cc2cc(O)c(O)cc2o1)CO
IC50 (Acetylcholinesterase): 28.6 µM
Activity (PC-12): 7.11%

C/C(=C/CCC1=C[C@H](c2cc(O)ccc2O)OC1=O)CO
Activity (PC-12): 11.67%

COC(=O)/C(=C\C(=O)c1cc(O)ccc1O)CC/C=C(\C)CCC=C(CO)CO
Activity (PC-12): 5.32%

C/C(=C\CCC1=C[C@H](c2cc(O)ccc2O)OC1=O)CCC=C(CO)CO
Activity (PC-12): 6.72%
